Reference: ChEMBL document CHEMBL1140770, “Chemo-, regio-, and stereoselectivity of F-ring opening reactions in the cephalostatin series” (2008)

What was measured:
Format in all cases: functional
Settings in all cases: for CC50: read-out: LC50 (the source's name)
[1] = Cytostatic activity against human HM02 cells by SRB assay
[2] = tested on: HepG2; assay: Cytostatic activity against human HepG2 cells by SRB assay
[3] = tested on: MCF7; assay: Cytostatic activity against human MCF7 cells by SRB assay

Compound | GI50 [1] [µM] | TGI [1] [µM] | CC50 [1] [µM] | GI50 [2] [µM] | TGI [2] [µM] | CC50 [2] [µM] | GI50 [3] [µM] | TGI [3] [µM] | CC50 [3] [µM]
C[C@H]1CC[C@@]2(OC1)O[C@H]1C=C3[C@@H]4CC[C@H]5Cc6nc7c(nc6C[C@]5(C)[C@H]4C[C@@H](O)[C@]3(C)[C@H]1[C@@H]2C)C[C@@H]1CC[C@H]2C3=C[C@@H]4O[C@]5(CC[C@H](C)CO5)[C@@H](C)[C@@H]4[C@@]3(C)[C@H](O)C[C@@H]2[C@@]1(C)C7 | 2.6 | 7 | > 10 | 0.65 | 5 | > 10 | 5.2 | > 10 | > 10
C[C@H]1CC[C@@]2(OC1)O[C@H]1C=C3[C@@H]4CC[C@H]5Cc6nc7c(nc6C[C@]5(C)[C@H]4CC(=O)[C@]3(C)[C@H]1[C@@H]2C)C[C@@H]1CC[C@H]2C3=C[C@@H]4O[C@]5(CC[C@H](C)CO5)[C@@H](C)[C@@H]4[C@@]3(C)[C@H](O)C[C@@H]2[C@@]1(C)C7 | 3 | > 10 | > 10 | > 10 | > 10 | > 10 | > 10 | > 10 | > 10
C[C@H]1CC[C@@]2(OC1)O[C@H]1C=C3[C@@H]4CC[C@H]5Cc6nc7c(nc6C[C@]5(C)[C@H]4C[C@@H](O)[C@]3(C)[C@H]1[C@@H]2C)C[C@@H]1CC[C@H]2C3=C[C@@H]4O[C@]5(CC[C@H](C)CO5)[C@@H](C)[C@@H]4[C@@]3(C)C3(C[C@@H]2[C@@]1(C)C7)OCCO3 | 2.8 | > 10 | > 10 | 0.07 | 1.7 | > 10 | 0.1 | > 10 | > 10
C[C@H](CO)CC[C@H]1O[C@H]2C=C3[C@@H]4CC[C@H]5Cc6nc7c(nc6C[C@]5(C)[C@H]4C[C@@H](O)[C@]3(C)[C@H]2[C@@H]1C)C[C@@H]1CC[C@H]2C3=C[C@@H]4O[C@H](CC[C@H](C)CO)[C@@H](C)[C@@H]4[C@@]3(C)C3(C[C@@H]2[C@@]1(C)C7)OCCO3 | 0.63 | 1 | > 10 | 1 | > 10 | > 10 | 8.2 | > 10 | > 10
C[C@H]1CC[C@@]2(OC1)O[C@H]1C=C3[C@@H]4CC[C@H]5Cc6nc7c(nc6C[C@]5(C)[C@H]4CC(=O)[C@]3(C)[C@H]1[C@@H]2C)C[C@@H]1CC[C@H]2C3=C[C@@H]4O[C@]5(CC[C@H](C)CO5)[C@@H](C)[C@@H]4[C@@]3(C)C(=O)C[C@@H]2[C@@]1(C)C7 | 5.5 | 7 | > 10 | 4.6 | > 10 | > 10 | > 10 | > 10 | > 10
C=C1C[C@H]2[C@@H](CC[C@H]3Cc4nc5c(nc4C[C@@]32C)C[C@@H]2CC[C@H]3C4=C[C@@H]6O[C@]7(CC[C@H](C)CO7)[C@@H](C)[C@@H]6[C@@]4(C)C(=O)C[C@@H]3[C@@]2(C)C5)C2=C[C@@H]3O[C@]4(CC[C@H](C)CO4)[C@@H](C)[C@@H]3[C@@]12C | > 10 | > 10 | > 10 | > 10 | > 10 | > 10 | > 10 | > 10 | > 10
C[C@H]1CC[C@@]2(OC1)O[C@H]1C=C3[C@@H]4CC[C@H]5Cc6nc7c(nc6C[C@]5(C)[C@H]4C[C@@H](O)[C@]3(C)[C@H]1[C@@H]2C)C[C@@H]1CC[C@H]2C3=C[C@@H]4O[C@]5(CC[C@H](C)CO5)[C@@H](C)[C@@H]4[C@@]3(C)C(CO)C[C@@H]2[C@@]1(C)C7 (stereo partly specified) | 2.3 | > 10 | > 10 | 6.9 | 10 | > 10 | 0.1 | > 10 | > 10
C=C1C[C@H]2[C@@H](CC[C@H]3Cc4nc5c(nc4C[C@@]32C)C[C@@H]2CC[C@H]3C4=C[C@@H]6O[C@H](CC[C@H](C)CO)[C@@H](C)[C@@H]6[C@@]4(C)[C@H](O)C[C@@H]3[C@@]2(C)C5)C2=C[C@@H]3O[C@H](CC[C@H](C)CO)[C@@H](C)[C@@H]3[C@@]12C | 1.7 | 5.8 | 9.5 | 1 | > 10 | > 10 | 5 | > 10 | > 10
C[C@H](CO)CC[C@H]1O[C@H]2C=C3[C@@H]4CC[C@H]5Cc6nc7c(nc6C[C@]5(C)[C@H]4CC4(OCCO4)[C@]3(C)[C@H]2[C@@H]1C)C[C@@H]1CC[C@H]2C3=C[C@@H]4O[C@]5(CC[C@H](C)CO5)[C@@H](C)[C@@H]4[C@@]3(C)[C@H](O)C[C@@H]2[C@@]1(C)C7 | 0.95 | 3.1 | > 10 | 10 | > 10 | > 10 | 2.5 | 10 | > 10
